Among the data in article PMC9856672, “SGC-CAMKK2-1: A Chemical Probe for CAMKK2” (Cells, 2023) are remaining binding values, retold here.

SMILES strings stand for the structures.

For one experiment, the target named is T1, TAOK2 (Homo sapiens, UniProt Q9UL54).
T1 construct: purchased Eurofins DiscoverX KINOMEscan
Kind of experiment: KINOMEscan 1 μM, TAOK2. Format: binding. The settings on record: 1000 nM; Entrez TAOK2; read-out: Percent Control. The text has this:
(§1) Supplement cells-12-00287-s001.zip/File S2. KinomeScan data for the CAMKK2 probe and negative control.xlsx, sheet "SGC-CAMKK2-1" | column: Percent Control

The next experiment has as its target T2, GCN2(Kin.Dom.2,S808G) (Homo sapiens, UniProt Q9P2K8, S808G).
T2 construct: GCN2(Kin.Dom.2,S808G); purchased Eurofins DiscoverX KINOMEscan
In words: KINOMEscan 1 μM, GCN2(Kin.Dom.2,S808G). Format: binding. The settings on record: 1000 nM; Entrez EIF2AK4; read-out: Percent Control.
Description: as §1

The next experiment deals with T3, FLT1 (Homo sapiens, UniProt P17948).
T3 construct: purchased Eurofins DiscoverX KINOMEscan
In words: KINOMEscan 1 μM, FLT1. Format: binding. The settings on record: 1000 nM; Entrez FLT1; read-out: Percent Control.
Description: as §1

In another experiment the target is T4, PIP5K1C (Homo sapiens, UniProt O60331).
T4 construct: purchased Eurofins DiscoverX KINOMEscan
T4 sequence (O60331 whole entry): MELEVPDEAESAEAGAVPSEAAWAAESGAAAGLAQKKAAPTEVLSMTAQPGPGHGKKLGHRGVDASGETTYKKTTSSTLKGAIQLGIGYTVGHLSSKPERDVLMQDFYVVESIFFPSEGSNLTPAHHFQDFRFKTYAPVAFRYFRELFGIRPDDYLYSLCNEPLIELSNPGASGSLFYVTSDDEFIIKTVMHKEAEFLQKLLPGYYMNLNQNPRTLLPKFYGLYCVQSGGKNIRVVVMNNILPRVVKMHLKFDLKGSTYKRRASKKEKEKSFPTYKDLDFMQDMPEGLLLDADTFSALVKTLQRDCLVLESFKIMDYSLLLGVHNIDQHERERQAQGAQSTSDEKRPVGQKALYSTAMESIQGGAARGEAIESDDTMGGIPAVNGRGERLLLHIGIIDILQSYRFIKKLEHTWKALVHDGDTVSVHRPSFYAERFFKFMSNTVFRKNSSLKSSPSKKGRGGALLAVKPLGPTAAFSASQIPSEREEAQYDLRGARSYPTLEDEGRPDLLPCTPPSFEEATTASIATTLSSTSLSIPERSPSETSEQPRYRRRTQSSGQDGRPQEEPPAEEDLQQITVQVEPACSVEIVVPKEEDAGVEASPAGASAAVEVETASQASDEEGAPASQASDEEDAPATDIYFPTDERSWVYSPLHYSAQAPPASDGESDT
In words: KINOMEscan 1 μM, PIP5K1C. Format: binding. The settings on record: 1000 nM; Entrez PIP5K1C; read-out: Percent Control.
Description: as §1

Another experiment concerns the target T5, MYLK (Homo sapiens, UniProt Q15746).
T5 construct: purchased Eurofins DiscoverX KINOMEscan
In words: KINOMEscan 1 μM, MYLK. Format: binding. The settings on record: 1000 nM; Entrez MYLK; read-out: Percent Control.
Description: as §1

In experiment [1] the target is T6, RSK4(Kin.Dom.1-N-terminal) (Homo sapiens, UniProt Q9UK32).
T6 construct: RSK4(Kin.Dom.1-N-terminal); purchased Eurofins DiscoverX KINOMEscan
T6 sequence (Q9UK32 1-400 limits assumed): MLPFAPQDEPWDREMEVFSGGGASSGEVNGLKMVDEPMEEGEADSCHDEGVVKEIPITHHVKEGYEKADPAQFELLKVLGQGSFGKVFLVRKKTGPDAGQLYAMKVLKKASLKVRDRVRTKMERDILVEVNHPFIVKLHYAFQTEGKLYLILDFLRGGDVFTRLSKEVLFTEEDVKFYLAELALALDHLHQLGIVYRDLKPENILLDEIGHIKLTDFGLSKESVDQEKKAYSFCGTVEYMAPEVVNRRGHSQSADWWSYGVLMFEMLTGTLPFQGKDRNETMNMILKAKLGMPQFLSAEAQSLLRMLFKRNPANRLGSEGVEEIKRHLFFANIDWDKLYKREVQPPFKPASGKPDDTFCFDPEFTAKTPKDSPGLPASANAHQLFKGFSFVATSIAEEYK
In words: DiscoverX KINOMEscan binding assay at 1 μM, RSK4(Kin.Dom.1-N-terminal). The settings on record: RSK4(Kin.Dom.1-N-terminal) (RPS6KA6); Compound Concentration 1000 nM; read-out: Percent Control.
Description: as §1

In the next experiment the target is T7, EGFR(L858R) (Homo sapiens, UniProt P00533, L858R).
T7 construct: purchased Eurofins DiscoverX KINOMEscan
In words: KINOMEscan 1 μM, EGFR(L858R). Format: binding. The settings on record: 1000 nM; Entrez EGFR; read-out: Percent Control.
Description: as §1

In a further experiment the target is T8, GRK1 (Homo sapiens, UniProt Q15835).
T8 construct: purchased Eurofins DiscoverX KINOMEscan
Kind of experiment: KINOMEscan 1 μM, GRK1. Format: binding. The settings on record: 1000 nM; Entrez GRK1; read-out: Percent Control.
Description: as §1

Another experiment concerns the target T9, MAP4K2 (Homo sapiens, UniProt Q12851).
T9 construct: purchased Eurofins DiscoverX KINOMEscan
In words: KINOMEscan 1 μM, MAP4K2. Format: binding. The settings on record: 1000 nM; Entrez MAP4K2; read-out: Percent Control.
Description: as §1

For another experiment, the target named is T10, ACVR2A (Homo sapiens, UniProt P27037).
T10 construct: purchased Eurofins DiscoverX KINOMEscan
T10 sequence (P27037 20-513): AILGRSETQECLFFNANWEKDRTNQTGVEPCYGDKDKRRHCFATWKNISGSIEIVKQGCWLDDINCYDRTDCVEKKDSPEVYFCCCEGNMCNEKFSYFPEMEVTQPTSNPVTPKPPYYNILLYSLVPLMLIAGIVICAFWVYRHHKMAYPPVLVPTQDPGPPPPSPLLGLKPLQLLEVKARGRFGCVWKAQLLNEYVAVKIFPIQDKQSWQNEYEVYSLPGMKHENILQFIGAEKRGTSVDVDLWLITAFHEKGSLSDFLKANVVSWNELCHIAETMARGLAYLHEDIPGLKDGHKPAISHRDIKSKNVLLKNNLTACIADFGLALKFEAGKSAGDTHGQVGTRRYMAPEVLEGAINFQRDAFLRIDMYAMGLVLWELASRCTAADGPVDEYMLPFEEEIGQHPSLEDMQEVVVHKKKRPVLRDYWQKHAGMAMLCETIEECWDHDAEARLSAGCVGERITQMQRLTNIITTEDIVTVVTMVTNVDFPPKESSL
In words: KINOMEscan 1 μM, ACVR2A. The settings on record: 1000 nM; Entrez ACVR2A; read-out: Percent Control. Format: binding.
Description: as §1

The target of a further experiment is T11, KIT(D816H) (Homo sapiens, UniProt P10721, D816H).
T11 construct: purchased Eurofins DiscoverX KINOMEscan
In words: KINOMEscan 1 μM, KIT(D816H). The settings on record: 1000 nM; Entrez KIT; read-out: Percent Control. Format: binding.
Description: as §1

A further experiment addresses T12, CDC2L5 (Homo sapiens, UniProt Q14004).
T12 construct: purchased Eurofins DiscoverX KINOMEscan
Kind of experiment: KINOMEscan 1 μM, CDC2L5. Format: binding. The settings on record: 1000 nM; Entrez CDK13; read-out: Percent Control.
Description: as §1

A further experiment has as its target T13, DMPK2 (Homo sapiens, UniProt Q6DT37).
T13 construct: purchased Eurofins DiscoverX KINOMEscan
Kind of experiment: KINOMEscan 1 μM, DMPK2. Format: binding. The settings on record: 1000 nM; Entrez CDC42BPG; read-out: Percent Control.
Description: as §1

Experiment [2] concerns the target T14, ABL1(F317I)-phosphorylated (Homo sapiens, UniProt P00519, F317I).
T14 construct: purchased Eurofins DiscoverX KINOMEscan
In words: KINOMEscan 1 μM, ABL1(F317I)-phosphorylated. Format: binding. The settings on record: 1000 nM; Entrez ABL1; read-out: Percent Control.
Description: as §1

Another experiment concerns the target T15, PIK4CB (Homo sapiens, UniProt Q9UBF8).
T15 construct: purchased Eurofins DiscoverX KINOMEscan
In words: DiscoverX KINOMEscan binding assay at 1 μM, PIK4CB. The settings on record: PIK4CB (PI4KB); Compound Concentration 1000 nM; read-out: Percent Control.
Description: as §1

A further experiment addresses T16, TXK (Homo sapiens, UniProt P42681).
T16 construct: purchased Eurofins DiscoverX KINOMEscan
Kind of experiment: DiscoverX KINOMEscan binding assay at 1 μM, TXK. The settings on record: Compound Concentration 1000 nM, read-out: Percent Control.
Description: as §1

The next experiment concerns the target T17, AMPK-alpha1 (Homo sapiens, UniProt Q13131).
T17 construct: purchased Eurofins DiscoverX KINOMEscan
In words: KINOMEscan at 1 μM, AMPK-alpha1. Format: binding. The settings on record: 1000 nM, read-out: Percent Control. From the text:
(§2) Supplement cells-12-00287-s001.zip/File S2. KinomeScan data for the CAMKK2 probe and negative control.xlsx, sheet "SGC-CAMKK2-1N" | column: Percent Control

The next experiment deals with T18, CSNK1A1L (Homo sapiens, UniProt Q8N752).
T18 construct: purchased Eurofins DiscoverX KINOMEscan
T18 sequence (Q8N752 whole entry): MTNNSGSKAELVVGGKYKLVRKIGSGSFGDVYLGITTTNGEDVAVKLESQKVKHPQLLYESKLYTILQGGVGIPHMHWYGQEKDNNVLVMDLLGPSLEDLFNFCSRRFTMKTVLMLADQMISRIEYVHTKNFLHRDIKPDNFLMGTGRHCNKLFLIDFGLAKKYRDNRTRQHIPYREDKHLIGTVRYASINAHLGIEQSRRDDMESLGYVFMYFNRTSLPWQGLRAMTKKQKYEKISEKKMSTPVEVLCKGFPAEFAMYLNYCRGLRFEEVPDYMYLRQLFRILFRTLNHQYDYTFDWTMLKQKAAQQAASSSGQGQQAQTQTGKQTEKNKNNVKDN
Kind of experiment: KINOMEscan at 1 μM, CSNK1A1L. Format: binding. The settings on record: 1000 nM, read-out: Percent Control.
Description: as §2

In a further experiment the target is T19, ERK2 (Homo sapiens, UniProt P28482).
T19 construct: purchased Eurofins DiscoverX KINOMEscan
In words: KINOMEscan binding assay at 1 μM, ERK2. The settings on record: Compound Concentration 1000 nM; read-out: Percent Control.
Description: as §2

Another experiment deals with T20, ZAK (Homo sapiens, UniProt Q9NYL2).
T20 construct: purchased Eurofins DiscoverX KINOMEscan
In words: KINOMEscan at 1 μM, ZAK. Format: binding. The settings on record: 1000 nM, read-out: Percent Control.
Description: as §2

The next experiment concerns the target T21, YANK1 (Homo sapiens, UniProt Q8WU08).
T21 construct: purchased Eurofins DiscoverX KINOMEscan
In words: KINOMEscan at 1 μM, YANK1. Format: binding. The settings on record: 1000 nM, read-out: Percent Control.
Description: as §2

Experiment [3] addresses T22, RSK1(Kin.Dom.1-N-terminal) (Homo sapiens, UniProt Q15418).
T22 construct: RSK1(Kin.Dom.1-N-terminal); purchased Eurofins DiscoverX KINOMEscan
Kind of experiment: KINOMEscan at 1 μM, RSK1(Kin.Dom.1-N-terminal). Format: binding. The settings on record: 1000 nM, read-out: Percent Control.
Description: as §2

In another experiment the target is T23, JNK3 (Homo sapiens, UniProt P53779).
T23 construct: purchased Eurofins DiscoverX KINOMEscan
T23 sequence (P53779 whole entry): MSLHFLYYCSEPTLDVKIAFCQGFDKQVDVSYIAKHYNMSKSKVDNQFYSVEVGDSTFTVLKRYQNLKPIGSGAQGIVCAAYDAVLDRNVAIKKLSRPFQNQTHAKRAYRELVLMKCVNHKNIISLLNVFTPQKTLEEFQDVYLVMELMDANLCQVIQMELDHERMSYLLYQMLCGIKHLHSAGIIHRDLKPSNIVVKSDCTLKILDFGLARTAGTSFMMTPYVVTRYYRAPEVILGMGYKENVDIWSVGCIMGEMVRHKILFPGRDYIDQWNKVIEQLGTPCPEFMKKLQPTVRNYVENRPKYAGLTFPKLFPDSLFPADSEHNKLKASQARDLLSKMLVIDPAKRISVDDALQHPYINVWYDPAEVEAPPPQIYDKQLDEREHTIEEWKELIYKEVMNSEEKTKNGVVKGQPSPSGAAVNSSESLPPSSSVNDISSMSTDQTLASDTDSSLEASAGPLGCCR
In words: KINOMEscan binding assay at 1 μM, JNK3. The settings on record: Compound Concentration 1000 nM; read-out: Percent Control.
Description: as §2

A further experiment addresses T24, EPHA8 (Homo sapiens, UniProt P29322).
T24 construct: purchased Eurofins DiscoverX KINOMEscan
Kind of experiment: KINOMEscan binding assay at 1 μM, EPHA8. The settings on record: Compound Concentration 1000 nM; read-out: Percent Control.
Description: as §2

A further experiment concerns the target T25, SRMS (Homo sapiens, UniProt Q9H3Y6).
T25 construct: purchased Eurofins DiscoverX KINOMEscan
Kind of experiment: KINOMEscan at 1 μM, SRMS. The settings on record: 1000 nM, read-out: Percent Control. Format: binding.
Description: as §2

The next experiment deals with T26, GRK2 (Homo sapiens, UniProt P25098).
T26 construct: purchased Eurofins DiscoverX KINOMEscan
T26 sequence (P25098 whole entry): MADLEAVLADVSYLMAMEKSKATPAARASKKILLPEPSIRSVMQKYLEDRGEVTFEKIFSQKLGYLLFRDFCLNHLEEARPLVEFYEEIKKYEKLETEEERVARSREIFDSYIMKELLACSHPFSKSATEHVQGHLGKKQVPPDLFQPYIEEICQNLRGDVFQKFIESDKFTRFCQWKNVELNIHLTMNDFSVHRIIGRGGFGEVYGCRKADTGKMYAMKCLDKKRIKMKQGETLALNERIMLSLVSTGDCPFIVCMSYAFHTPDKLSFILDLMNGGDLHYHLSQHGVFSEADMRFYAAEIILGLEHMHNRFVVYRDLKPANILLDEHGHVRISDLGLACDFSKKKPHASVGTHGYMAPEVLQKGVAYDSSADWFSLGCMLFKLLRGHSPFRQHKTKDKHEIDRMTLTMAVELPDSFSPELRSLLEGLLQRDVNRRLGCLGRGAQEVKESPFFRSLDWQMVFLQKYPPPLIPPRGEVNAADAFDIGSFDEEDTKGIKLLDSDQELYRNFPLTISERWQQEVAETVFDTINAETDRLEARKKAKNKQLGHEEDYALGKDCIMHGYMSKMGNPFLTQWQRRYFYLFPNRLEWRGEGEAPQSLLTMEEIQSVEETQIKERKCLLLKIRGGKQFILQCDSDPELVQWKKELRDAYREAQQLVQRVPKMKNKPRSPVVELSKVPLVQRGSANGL
Kind of experiment: KINOMEscan at 1 μM, GRK2. Format: binding. The settings on record: 1000 nM, read-out: Percent Control.
Description: as §2

In another experiment the target is T27, ACVR2B (Homo sapiens, UniProt Q13705).
T27 construct: purchased Eurofins DiscoverX KINOMEscan
T27 sequence (Q13705 19-512): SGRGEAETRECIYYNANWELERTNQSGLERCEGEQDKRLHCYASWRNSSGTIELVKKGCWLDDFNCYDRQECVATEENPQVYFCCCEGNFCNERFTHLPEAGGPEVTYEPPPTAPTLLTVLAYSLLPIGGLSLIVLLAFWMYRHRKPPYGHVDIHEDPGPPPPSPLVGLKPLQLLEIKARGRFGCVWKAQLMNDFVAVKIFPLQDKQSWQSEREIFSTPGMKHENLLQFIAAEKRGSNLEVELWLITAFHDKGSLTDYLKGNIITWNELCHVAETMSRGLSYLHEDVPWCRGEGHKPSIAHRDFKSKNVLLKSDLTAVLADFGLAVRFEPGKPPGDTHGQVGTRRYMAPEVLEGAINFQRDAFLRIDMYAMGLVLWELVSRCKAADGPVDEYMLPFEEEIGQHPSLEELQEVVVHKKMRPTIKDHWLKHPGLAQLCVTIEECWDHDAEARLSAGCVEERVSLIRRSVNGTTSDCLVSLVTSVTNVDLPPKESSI
In words: KINOMEscan at 1 μM, ACVR2B. Format: binding. The settings on record: 1000 nM, read-out: Percent Control.
Description: as §2

The next experiment concerns the target T28, LATS1 (Homo sapiens, UniProt O95835).
T28 construct: purchased Eurofins DiscoverX KINOMEscan
In words: KINOMEscan at 1 μM, LATS1. Format: binding. The settings on record: 1000 nM, read-out: Percent Control.
Description: as §2

A further experiment concerns the target T29, HIPK2 (Homo sapiens, UniProt Q9H2X6).
T29 construct: purchased Eurofins DiscoverX KINOMEscan
Kind of experiment: KINOMEscan at 1 μM, HIPK2. Format: binding. The settings on record: 1000 nM, read-out: Percent Control.
Description: as §2

The next experiment addresses T30, FLT3(D835V) (Homo sapiens, UniProt P36888, D835V).
T30 construct: purchased Eurofins DiscoverX KINOMEscan
In words: KINOMEscan at 1 μM, FLT3(D835V). Format: binding. The settings on record: 1000 nM, read-out: Percent Control.
Description: as §2

A further experiment has as its target T31, RET(M918T) (Homo sapiens, UniProt P07949, M918T).
T31 construct: purchased Eurofins DiscoverX KINOMEscan
Kind of experiment: KINOMEscan at 1 μM, RET(M918T). Format: binding. The settings on record: 1000 nM, read-out: Percent Control.
Description: as §2

T1 sequence (Q9UL54 whole entry): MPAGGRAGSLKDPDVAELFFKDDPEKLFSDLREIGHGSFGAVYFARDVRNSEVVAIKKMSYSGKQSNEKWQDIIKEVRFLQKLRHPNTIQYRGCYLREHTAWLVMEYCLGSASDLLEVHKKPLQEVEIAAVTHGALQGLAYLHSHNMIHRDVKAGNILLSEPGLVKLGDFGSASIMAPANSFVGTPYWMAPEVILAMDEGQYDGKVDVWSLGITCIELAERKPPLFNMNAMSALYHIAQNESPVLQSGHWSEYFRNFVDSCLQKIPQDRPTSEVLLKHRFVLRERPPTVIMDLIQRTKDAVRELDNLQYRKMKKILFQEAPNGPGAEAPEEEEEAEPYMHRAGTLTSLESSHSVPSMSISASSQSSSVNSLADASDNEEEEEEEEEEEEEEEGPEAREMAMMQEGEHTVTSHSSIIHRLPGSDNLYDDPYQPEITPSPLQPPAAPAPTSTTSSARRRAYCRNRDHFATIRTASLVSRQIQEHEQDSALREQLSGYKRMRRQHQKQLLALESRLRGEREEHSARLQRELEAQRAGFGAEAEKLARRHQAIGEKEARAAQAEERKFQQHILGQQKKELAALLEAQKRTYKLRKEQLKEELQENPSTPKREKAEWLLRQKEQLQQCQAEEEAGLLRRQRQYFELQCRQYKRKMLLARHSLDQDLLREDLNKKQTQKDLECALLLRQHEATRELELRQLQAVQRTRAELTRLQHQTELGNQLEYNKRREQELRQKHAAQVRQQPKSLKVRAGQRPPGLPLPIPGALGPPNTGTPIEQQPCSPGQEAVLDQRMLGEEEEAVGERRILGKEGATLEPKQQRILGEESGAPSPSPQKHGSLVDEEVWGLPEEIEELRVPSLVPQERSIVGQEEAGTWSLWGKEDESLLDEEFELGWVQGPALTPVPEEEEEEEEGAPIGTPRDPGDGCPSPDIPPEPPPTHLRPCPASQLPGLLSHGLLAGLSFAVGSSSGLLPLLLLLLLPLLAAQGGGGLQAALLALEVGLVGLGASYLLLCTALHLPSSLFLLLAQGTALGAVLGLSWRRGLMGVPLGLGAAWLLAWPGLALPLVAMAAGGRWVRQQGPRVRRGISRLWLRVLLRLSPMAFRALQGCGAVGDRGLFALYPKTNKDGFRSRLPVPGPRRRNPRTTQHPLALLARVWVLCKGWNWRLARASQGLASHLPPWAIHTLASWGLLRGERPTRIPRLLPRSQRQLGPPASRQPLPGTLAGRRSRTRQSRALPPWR

Regarding `Cc1cccc(-c2cnc3occ(-c4ccc(C(=O)O)c(C5CCCC5)c4)c3c2)c1` [SGC-CAMKK2-1 (YL-36)], the remaining binding at 1 µM on TAOK2 stood at 90%; on GCN2(Kin.Dom.2,S808G), 42%; on FLT1, 93%; on PIP5K1C, 99%; on MYLK, 76%; in experiment [1] it was 100%. For the same molecule, the remaining binding at 1 µM on EGFR(L858R) was 77%; on GRK1, 100%; at MAP4K2, 100%; at ACVR2A it was 92%; on KIT(D816H), 87%; on CDC2L5 it was 100%. The remaining binding at 1 µM at DMPK2 worked out at 97%; in experiment [2], 100%; at PIK4CB it was 100%; at TXK it was 100%.

For the molecule `O=C(O)c1ccc(-c2coc3ncc(-c4ccccc4)cc23)cc1Cl` [SGC-CAMKK2-1N (UNC-YL-83)], the remaining binding at 1 µM at AMPK-alpha1 stood at 100%; at CSNK1A1L it was 99%; at ERK2, 100%; on ZAK, 69%; on YANK1, 84%; in experiment [3] it was 99%. The remaining binding at 1 µM amounted to 100% at JNK3; 100% on EPHA8; 79% at SRMS; 55% on GRK2; 66% at ACVR2B; 83% at LATS1. The remaining binding at 1 µM on HIPK2 was 77%; at FLT3(D835V) it was 97%; on RET(M918T), 99%.
